Results published in US20110165266A1 (priority 2008, published 2011).

Test system: ASLV-A vector RCASBP(A)-AP
Format: cell-based, avian sarcoma and leukosis virus (ASLV-A)

Structure (SMILES): [O-][Cl+2]([O-])O [chlorate]
- influence on infection by ASLV-A vector: did not influence infection
